Results published in patent publication US20240423969A1, “SYNERGISTIC DRUG COMBINATIONS TO TREAT CANCER” (Mayo Foundation for Medical Education and Research, priority 2023, published 2024).
pIC50: −log10 of the molar value.

System: HCC cell lines (HLE, HLF, and PLC/PRF5)
Assay: Cell proliferation assay, three HCC cell lines
Type: cell-based
Details: Homo sapiens, PLC-PRF-5, single agent, range over HLE, 96 hours, read-out: IC50 (concentration that inhibits proliferation of 50% cells)
Description: HCC cell lines (3×10^5 cells) were suspended in a 10 mL culture medium and seeded onto 96-well black plates at 100 μL per well (Corning Incorporated, Corning, NY, USA). The next day, SSI-4, cabozantinib, and/or lenvatinib were added in concentrations ranging from 120 μM to 0.1 nM and incubated with cells for 96 hours. After incubation times, the media was discarded, and cells were washed with 100 μL PBS, dried, and placed at −80° C. for at least 30 minutes. Next, a CyQUANT® Cell Proliferation Assay (Thermo Fisher, Waltham, MA) was used for quantifying cells and for assessing cell proliferation and cytotoxicity following manufacturer protocol. For 3D cell culture, the cell viability was analyzed using CellTiter-Glo® 3D Cell Viability Assay (Promega, Madison, WI), and relative luminescence units (RLU) were measured. Based, on the fluorescence or luminescence values, the percentage of cell proliferation inhibition and half-maximal inhibitory concentration (IC50) was determined using the GraphPad Prism (Dotmatics, San Diego, CA). The resulting combination index (CI) data based on the median effect principle proposed by Chou and Talalay was generated using CalcuSyn Software Version 2.0 (Biosoft). At least 3 independent experiments were performed.
Three HCC cell lines (HLE, HLF, and PLC/PRF5) were tested and the concentration that inhibits proliferation of 50% cells (IC50) was determined. […]

SMILES	pIC50
CNC(=O)c1ccnc(NC(=O)N2CCC(Oc3ccccc3Cl)CC2)c1 [SSI-4, 2-{[4-(2-Chlorophenoxy)piperidine-1-carbonyl]amino}-N-methylpyridine-4-carboxamide]	7.72 to 9.00
COc1cc2nccc(Oc3ccc(NC(=O)C4(C(=O)Nc5ccc(F)cc5)CC4)cc3)c2cc1OC [cabozantinib]	4.14 to 4.72
COc1cc2nccc(Oc3ccc(NC(=O)NC4CC4)c(Cl)c3)c2cc1C(N)=O [lenvatinib]	4.62 to 4.96
